The target of test [1] is T1, ADAM10 (Homo sapiens, UniProt O14672).
T1 construct: purchased R&D Systems 936-AD
T1 sequence (O14672 214-748): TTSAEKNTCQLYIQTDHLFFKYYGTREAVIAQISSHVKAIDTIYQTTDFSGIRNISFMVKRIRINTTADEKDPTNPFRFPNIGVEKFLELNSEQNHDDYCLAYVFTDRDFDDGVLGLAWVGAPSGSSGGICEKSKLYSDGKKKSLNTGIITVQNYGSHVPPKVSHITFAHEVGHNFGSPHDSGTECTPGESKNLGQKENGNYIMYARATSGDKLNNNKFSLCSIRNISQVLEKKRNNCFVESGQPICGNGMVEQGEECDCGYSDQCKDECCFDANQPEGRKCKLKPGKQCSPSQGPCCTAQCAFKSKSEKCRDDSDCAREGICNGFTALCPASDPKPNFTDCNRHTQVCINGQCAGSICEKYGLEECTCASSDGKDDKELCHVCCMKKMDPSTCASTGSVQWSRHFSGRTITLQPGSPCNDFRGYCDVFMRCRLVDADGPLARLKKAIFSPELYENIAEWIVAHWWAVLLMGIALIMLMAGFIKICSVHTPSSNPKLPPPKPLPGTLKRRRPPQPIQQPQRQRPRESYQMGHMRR
The experiment in a line: ADAM10 glycosylated substrate uHTS/HTS assay. It is filed as biochemical. The method, then:
To enable uHTS both ADAM10 and ADAM17 glycosylated substrate[13] (Fig. 1A) assays were miniaturized to 1536 well plate format. The workflow of the assays in 384 well plate format was recaptured in 1536 well plate format and assay volume was scaled down to 5 µL.
Both assays followed the same general protocol. […] Reactions were incubated at RT for 2 h, after which the fluorescence was measured using Perkin Elmer Viewlux multimode microplate imager (λexcitation = 360 nm, λemission = 460 nm). Final concentration of test compounds in assays was 7.0 µM.
(§1) The miniaturized 1536-well plate format ADAM10 and ADAM17 assays were used to screen a collection of ≈370,000 compounds (MLSMR library, provided by the NIH) on the automated Kalypsys/GNF platform at the Scripps Research Institute Molecular Screening Center (SRIMSC, Jupiter, FL. More details at http://hts.florida.scripps.edu/). […] Both uHTS campaigns were run separately but in a similar manner. Briefly, the first step was the primary screen of all MLSMR’s test compounds as singlicate against the ADAM10 or ADAM17 target at a final concentration of 7.0 μM. Next, compounds selected as primary hits were cherry-picked and retested in triplicate against the primary screen target and its anti-target (ADAM17 for the ADAM10 screening effort, and vice-versa) at the same final concentration of 7.0 μM. […] All data generated during this effort were uploaded to the SRIMSC’s institutional screening database (Assay Explorer, Symyx). Sample to background (S/B) ratios, as well as Z and Z′ values were calculated on a per-plate basis as described before. Curve fitting and resulting IC50 determinations were performed as previously reported.

For test [2], the target named is T2, ADAM17 (Homo sapiens, UniProt P78536).
T2 construct: purchased R&D Systems 930-ADB
The experiment in a line: ADAM17 glycosylated substrate uHTS/HTS assay. To be noted: for IC50: original uHTS dose response, 10-point 1:3 dilutions starting at 70 µM. The class given is biochemical. As for the experimental part:
Both assays followed the same general protocol. […] After 30 min incubation at RT, the reactions were started by addition of 2.5 µL of 2x solutions of glycosylated substrate (20 µM). Reactions were incubated at RT for 2 h, after which the fluorescence was measured using Perkin Elmer Viewlux multimode microplate imager (λexcitation = 360 nm, λemission = 460 nm). Final concentration of test compounds in assays was 7.0 µM.
as §1

Test [3] has as its target T1, ADAM10. The experiment in a line: Dual inhibition studies of ADAM10 with AHA and CID 3117694. It is filed as biochemical. The method, then: 5 µL of 4X ADAM10 solution ([…]) were added to solid bottom black 384 low volume plates (Nunc, cat# 264705). […] 5 µL of 4X CID 3117694 were added to the wells containing AHA such that the final assay concentrations of CID 3117694 were 0.275, 0.55, 1.1, 2.2, and 4.4 µM. Enzyme-inhibitor mixtures were incubated for 1 h at RT after which 5 µL of 4X glycosylated substrate was added to all wells. Reactions were incubated at RT for 2 h, after which the fluorescence was measured using the Synergy H4 multimode microplate reader (λexcitation = 360 nm, λemission = 460 nm). IC50 values were calculated by fitting normalized data to sigmoidal log vs. response equation utilizing non-linear regression analysis from GraphPad Prizm 6.
Multi-drug combination dose-effect analysis using Compusyn software (ComboSyn, Inc. 599 Mill Run, Paramus, NJ, 07653, USA) was utilized to determine whether inhibitor combinations produced synergy, antagonism, or no effect as compared to a single inhibitor. Combination Index values were obtained using Combination Index (CI) Equation of Chou-Talalay[56] in Compusyn software (ComboSyn, Inc. 599 Mill Run, Paramus, NJ, 07653, USA) and a normalized isobologram was constructed: (D)1/(Dx)1+(D)2/(Dx)2=CI
In the denominators, (Dx)1 is the doses of Drug1 alone that inhibits x% while (Dx)2 is the dose of Drug2 alone that inhibits x%. […] Effect was determined according to the Table 1 (from ref. [57]).

The subject of test [4] is shedding of CXCL16 in A549 cells. The experiment in a line: CXCL16 shedding inhibition (ELISA). It is filed as cell-based, human. The settings on record: TNF/IFN stimulation 24 h. As for the experimental part:
(§2) A549 cells were seeded in 12-well plates and grown to confluency in DMEM supplemented with 10% FBS and 1% P/S. Subsequently, cells were starved serum-free for 4 h, incubated for 1 h with GI 254023X or CID 3117694 (concentrations as indicated) or DMSO (vehicle, 0.1%) and afterwards stimulated with 10 ng/mL TNF and 10 ng/mL IFN for 24 h or left untreated in the presence of inhibitors or DMSO. Supernatants (500 µL) were harvested and centrifuged for 10 min at 16100 g and 4 °C. […] of CXCL16 were measured using the DuoSet human CXCL16 Elisa Kit (R&D systems, Wiesbaden, Germany). Samples were stored at −80 °C and diluted 2-fold after careful thawing. The standard ranged from 0 to 25,000 pg/mL with a detection limit of 391 pg/mL. For detection of soluble syndecan-4, conditioned media (200 µL) were 2-fold diluted in blotting buffer (0.15 M NaCl buffered to pH 4.5 with 50 mM sodium acetate, and with 0.1% Triton X-100), and applied to cationic polyvinylidene difluoride-based membranes (Hybond-N, Amersham Biosciences, Freiburg, Germany) under vacuum in a dot blot apparatus (Amersham Biosciences). The membranes were blocked for 1 h with PBS-T supplemented with 1% bovine serum albumin and 3% milk powder. Human syndecan-4 was detected by incubating membranes overnight at 4 °C with mouse anti-syndecan-4 mAb (0.6 µg/mL) followed by incubation with POD-coupled goat anti-mouse Ab (27 ng/mL in PBS, Jackson Immunoresearch). Chemiluminescence was recorded and quantified using the luminescent image analyzer LAS3000 substrate after addition of ECL advanced substrate (Amersham Biosciences).
In general terms: An ELISA detects its analyte on a solid surface through an enzyme-linked reagent.

Test [5] deals with syndecan-4 shedding in A549 cells. The experiment in a line: Syndecan-4 shedding inhibition (dot blot). The class given is cell-based, human. The settings on record: TNF/IFN 24 h. The method, then: as §2, with “For detection of soluble syndecan-4, conditioned media (200 µL) were 2-fold diluted in blotting buffer (0.15 M NaCl buffered to pH 4.5 with 50 mM sodium acetate, and with 0.1% Triton X-100), and applied to cationic polyvinylidene difluoride-based membranes (Hybond-N, Amersham Biosciences, Freiburg, Germany) under vacuum in a dot blot apparatus (Amersham Biosciences). The membranes were blocked for 1 h with PBS-T supplemented with 1% bovine serum albumin and 3% milk powder.” left out

Test [6] has as its system CCL2-induced migration of peripheral blood mononuclear cells (PBMC). The experiment in a line: PBMC migration assay. It is filed as cell-based. The method, then: (§3) For PBMC or primary human neutrophil chemotaxis assays, transwells with 8 or 5 µm pores were filled with 100 µL of cell suspension (1 × 10^6 cells in 100 µL DMEM + 0.2% BSA). Lower wells were filled with stimulus solution (3 nM CCL2 or 10 µg/mL CXCL8 (IL8) in assay buffer (RPMI + 0.2% BSA). After incubation of PBMCs for 2 h or neutrophils for 45 min, migrated cells were quantified in the lower well. For inhibitor studies, cells were pre-incubated in migration medium for 30 min and subsequently subjected to the migration experiment. Migrated neutrophils or PBMCs were quantified by measurement of endogenous glucuronidase activity as described.

Test [7] has as its system IL-8-induced migration of primary human neutrophils. The experiment in a line: Neutrophil migration assay. The class given is cell-based. The method, then:
as §3

The target of test [8] is T1, ADAM10. The settings on record: cited from earlier work.
The target of test [9] is T2, ADAM17. The settings on record: cited from earlier work.
For test [10], the target named is T1, ADAM10. The experiment in a line: ADAM10 non-glycosylated substrate assay. It is filed as biochemical. To be noted: ADAM10. The text has this: Additionally, we synthesized a non-glycosylated version, E(Edans)-[…]-K(Dabcyl), to be used as a control in the follow-up studies.
Setting [11] is: original uHTS dose response, 10-point 1:3 dilutions starting at 70 µM.

Read-outs that look alike come from different tables or passages of the source. Where only a bound is given, the exact number is not on record here.

T2 sequence (P78536 215-824): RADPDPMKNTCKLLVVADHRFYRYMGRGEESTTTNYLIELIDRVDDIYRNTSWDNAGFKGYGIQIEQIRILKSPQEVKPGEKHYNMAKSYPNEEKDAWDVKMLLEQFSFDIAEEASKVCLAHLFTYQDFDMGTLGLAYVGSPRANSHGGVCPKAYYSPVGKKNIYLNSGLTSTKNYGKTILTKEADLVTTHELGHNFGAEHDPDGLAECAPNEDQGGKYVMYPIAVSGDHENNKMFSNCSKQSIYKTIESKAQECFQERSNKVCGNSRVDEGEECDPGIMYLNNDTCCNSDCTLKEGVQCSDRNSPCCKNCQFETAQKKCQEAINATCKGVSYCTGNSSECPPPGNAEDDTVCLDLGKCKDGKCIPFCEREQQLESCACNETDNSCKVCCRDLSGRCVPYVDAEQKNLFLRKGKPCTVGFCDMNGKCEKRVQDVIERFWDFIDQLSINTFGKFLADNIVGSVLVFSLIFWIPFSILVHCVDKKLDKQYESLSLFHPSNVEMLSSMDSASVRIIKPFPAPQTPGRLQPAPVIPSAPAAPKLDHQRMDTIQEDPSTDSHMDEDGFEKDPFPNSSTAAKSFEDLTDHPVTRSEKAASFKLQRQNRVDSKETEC

On to `CCOc1ccc(NC(=O)CC2SC(=O)N(c3ccccc3)C2=O)cc1` (stereo not shown) [CID 3153587], for which the IC50 (as a rule, the concentration that gives 50% inhibition) on ADAM10 [1] (setting [11]) is above 70 µM; against ADAM17 [2], 7.8 µM.

Consider `O=C(O)CCC(=O)c1c[nH]c2ccccc12` [CID 730037], for which, on ADAM10 [1] (setting [11]), the IC50 is above 70 µM. Further, the “activity against ADAM17 of reordered powder versus original testing” value on ADAM17 [2] (reordered powder, 10-point 1:3 dilutions starting at 100 µM) was “significantly lower activity”.

For the molecule `CC(=O)NO` [AHA, acetohydroxamic acid], the IC50 on ADAM10 [3] (AHA alone, read-out: AHA IC50, ADAM10-mediated hydrolysis of glycosylated substrate) stood at 1000 ± 50 µM. The “improvement in potency versus AHA alone” value at ADAM10 [3] (in the presence of 1.1 µM CID 31176944) is 10 fold; on ADAM10 [3] (in the presence of 4.4 µM CID 31176944) it was 100 fold.

Take `O=C1NC(=O)C(Cc2ccc(Cl)cc2)(c2ccccc2)N1` (stereo not shown) [CID 236330]: the figures for the IC50 on ADAM10 [1] (setting [11]) and at ADAM17 [2] were 32 µM and 3.2 µM, respectively.

`CNC(=O)[C@@H](NC(=O)[C@H](CCCc1ccccc1)[C@H](C)N(O)C=O)C(C)(C)C` [GI 254023X, reference compound]: the “inhibition of cytokine-inducible shedding of CXCL16” value in test [4] was “inhibited shedding”. In [5], the “inhibition of syndecan-4 shedding” value is listed as “inhibited shedding”. Also, in [6], the “inhibition of PBMC migration” value was “completely inhibited migration”. Besides, the “inhibition of neutrophil migration” value in test [7] is listed as “completely inhibited migration”. Moreover, the IC50 is 0.0053 µM on ADAM10 [8] and 0.541 µM at ADAM17 [9].

With `CNC(=O)[C@@H](NC(=O)[C@H](CC(C)C)[C@H](O)C(=O)NO)C(C)(C)C` [marimastat, reference compound], the IC50 is 0.033 µM at ADAM10 [1] (384 well plate format) and 0.02 µM at ADAM10 [1] (1536 well plate format). Moreover, the “potency for hydrolysis of glycosylated versus non-glycosylated substrate” value at ADAM10 [10] is recorded as “same potency”.

Turning to `O=C(NO)[C@H]1C[C@H](OC(=O)N2CCCC2)CC[C@@H]1C(=O)N1CCC(c2ccccc2)CC1` [INCB8765], the half-inhibitory concentration (IC50) on ADAM10 [8] is 0.097 µM; at ADAM17 [9], 2.04 µM.

B1: ADAM10 prodomain: Biozyme Inc.; competitive inhibitor of ADAM10 (protein)
chain: NPLNKYIRHYEGLSYNVDSLHQKHQRAKRAVSHEDQFLLLDFHAHGRQFNLRMKRDTSLFSDEFKVETSNKVLDYDTSHIYTGHIYGEEGSFSHGSVIDGRFEGFIKTRGGTFYIEPAERYIKDRILPFHSVIYHEDDINYPHKYGPQGGCADHSVFERMRKYQMTGVEEGARAHPEKHAASSGPELLRKK
modifications: tag omitted
Regarding B1, the IC50 with ADAM10 [8] was 0.048 µM; with ADAM17 [9], above 10 µM.

(Values after PMC5431342, “Discovery of an enzyme and substrate selective inhibitor of ADAM10 using an exosite-binding glycosylated substrate” (Scientific Reports, 2016).)
